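These data come from cells grown in 96-well plates and exposed to compound for 48 hours at five concentrations. The concentration for full growth arrest is given as TGI.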
Legend:
Test in all cases: DTP human tumour cell line panel, 48 h
[1] = test system: SNB-75 CNS
[2] = test system: SK-MEL-2 melanoma
[3] = test system: SF-295 CNS
[4] = test system: MDA-N
[5] = test system: A549 NSCLC
[6] = test system: SK-OV-3 ovarian
[7] = test system: SN12C renal
[8] = test system: NCI-H522 lung
[9] = test system: OVCAR-3 ovarian
[10] = test system: HCT-15 colon
[11] = test system: PC-3 prostate
[12] = test system: NCI/ADR-RES ovarian
[13] = test system: K-562 leukemia
[14] = test system: SR leukemia
[15] = test system: KM12 colon
[16] = test system: SF-268 CNS
[17] = test system: RXF 393 renal
[18] = test system: ACHN renal
[19] = test system: MDA-MB-435
[20] = test system: SNB-19 CNS
[21] = test system: BT-549 breast
[22] = test system: U251 CNS
[23] = test system: TK-10 renal
[24] = test system: HCT-116 colon
[25] = test system: HCC-2998 colon
[26] = test system: MDA-MB-231 breast
[27] = test system: EKVX NSCLC
[28] = test system: SF-539 CNS
[29] = test system: MCF7 breast
[30] = test system: OVCAR-5 ovarian
[31] = test system: SK-MEL-28 melanoma
[32] = test system: T-47D breast
[33] = test system: UO-31 renal
[34] = test system: SW-620 colon
[35] = test system: RPMI-8226 leukemia
[36] = test system: OVCAR-8 ovarian
[37] = test system: NCI-H226 lung
[38] = test system: COLO 205 colon
[39] = test system: SK-MEL-5 melanoma
[40] = test system: IGROV1 ovarian
[41] = test system: 786-0 renal
[42] = test system: M14 melanoma
[43] = test system: MOLT-4 leukemia
[44] = test system: HOP-62 NSCLC
[45] = test system: NCI-H23 lung
[46] = test system: HOP-92 NSCLC
[47] = test system: UACC-62 melanoma
[48] = test system: CAKI-1 renal
[49] = test system: DU-145 prostate
[50] = test system: HS 578T breast

COc1ccc(N=C2C(=Nc3ccc(OC)cc3)N(S(=O)(=O)c3ccccc3)C(=S)N2c2ccc(OC)cc2)cc1
TGI [1]: 38.8 µM
TGI [2]: > 100 µM
TGI [3]: > 100 µM
TGI [4]: > 100 µM
TGI [5]: > 100 µM
TGI [6]: > 100 µM
TGI [7]: > 100 µM
TGI [8]: > 100 µM
TGI [9]: > 100 µM
TGI [10]: > 100 µM
TGI [11]: > 100 µM
TGI [12]: > 100 µM
TGI [13]: > 100 µM
TGI [14]: > 100 µM
TGI [15]: > 100 µM
TGI [16]: > 100 µM
TGI [17]: > 100 µM
TGI [18]: > 100 µM
TGI [19]: > 100 µM
TGI [20]: > 100 µM
TGI [21]: > 100 µM
TGI [22]: > 100 µM
TGI [23]: > 100 µM
TGI [24]: > 100 µM
TGI [25]: > 100 µM
TGI [26]: 92.1 µM
TGI [27]: > 100 µM
TGI [28]: > 100 µM
TGI [29]: > 100 µM
TGI [30]: > 100 µM
TGI [31]: > 100 µM
TGI [32]: > 100 µM
TGI [33]: > 100 µM
TGI [34]: > 100 µM
TGI [35]: > 100 µM
TGI [36]: > 100 µM
TGI [37]: > 100 µM
TGI [38]: > 100 µM
TGI [39]: > 100 µM
TGI [40]: > 100 µM
TGI [41]: > 100 µM
TGI [42]: > 100 µM
TGI [43]: > 100 µM
TGI [44]: > 100 µM
TGI [45]: > 100 µM
TGI [46]: > 100 µM
TGI [47]: > 100 µM
TGI [48]: > 100 µM
TGI [49]: > 100 µM
TGI [50]: > 100 µM
